Laboratory results: paper PMC9540877, “Clinical Formulation Bridging of Gefapixant, a P2X3‐Receptor Antagonist, for the Treatment of Chronic Cough” (Clinical Pharmacology in Drug Development, 2022)

Key:
[1] = set-up: method as in PMID 35248186; conditions: patients with RCC or UCC, COUGH-1 and COUGH-2; cited from earlier work
[2] = system: organic anion transporter P1B1; set-up: method as in PMID 34821075; conditions: twice-daily gefapixant 45 mg; cited from earlier work
[3] = Safety and tolerability in studies 1 to 4; format: in vivo, human
Method: Safety and tolerability for all studies were determined using clinical assessments, including physical examinations, vital signs, standard laboratory tests, 12‐lead electrocardiograms, and adverse events (AEs).

MATE1/2K = conditions: cited from earlier work
[4] = cited from earlier work

COc1cc(C(C)C)c(Oc2cnc(N)nc2N)cc1S(N)(=O)=O [gefapixant, Gefapixant]
24-hour cough frequency [1]: significantly reduced
effect on the pharmacokinetics of pitavastatin [2]: no effect
serious AEs ([3]; all 4 studies): no serious AEs
severity of all AEs ([3]; all 4 studies): mild or moderate
most commonly reported AEs ([3]; studies 1 and 2): taste related
most common AE ([3]; studies 3 and 4): headache
effect of inhibiting MATE1/2K via pyrimethamine on gefapixant exposure (MATE1/2K): does not meaningfully increase
excreted metabolites, share of the gefapixant dose [4]: 14%
terminal half-life (t1/2) [4]: ≈ 7 hours
